EC50 and Emax data for 36 molecules are collected here from patent US20060240048A1 (priority 2002, published 2006).

This assay concerns the target T1, human cannabinoid CB2 receptor (Homo sapiens, UniProt P34972).
T1 construct: expressed in transfected cells; host or cells: Saccharomyces cerevisiae strain MMY23
Description: Cannabinoid CB2 receptor agonist activity, yeast reporter assay (FDGlu fluorescence).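 On Emax: 100% equals maximal response of reference agonist HU210.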 It is filed as cell-based. The note with it: for Emax: read-out: efficacy value (Emax) at the cloned human cannabinoid CB2 receptor. A general note: A reporter such as luciferase makes a cellular process visible.

T1 sequence (P34972 whole entry): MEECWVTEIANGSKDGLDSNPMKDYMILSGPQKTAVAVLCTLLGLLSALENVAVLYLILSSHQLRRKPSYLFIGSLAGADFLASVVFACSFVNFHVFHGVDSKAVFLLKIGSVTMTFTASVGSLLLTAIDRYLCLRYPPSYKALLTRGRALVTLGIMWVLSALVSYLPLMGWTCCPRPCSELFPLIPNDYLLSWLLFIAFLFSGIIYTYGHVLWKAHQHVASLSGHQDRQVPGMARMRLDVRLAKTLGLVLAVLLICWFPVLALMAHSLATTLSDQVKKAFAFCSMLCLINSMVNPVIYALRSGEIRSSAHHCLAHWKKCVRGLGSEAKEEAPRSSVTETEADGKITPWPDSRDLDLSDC

For orientation: EC50 means the midpoint of the concentration-response curve. Higher therefore signals weaker potency. What is called Emax is the size of the effect at its maximum, as opposed to the concentration needed. For `CC(C)c1cc(Nc2cc(Cl)cc(Cl)c2)ncc1C(=O)NCC1CCC1` [Example 263, N-Cyclobutylmethyl-6-(3,5-dichloro-phenylamino)-4-isopropyl-nicotinamide], the EC50 was below 300 nM and the Emax was above 50%. On to `CC(C)c1cc(Nc2cccc(C(F)(F)F)c2F)ncc1C(=O)NCC1CCOCC1` [Example 81, 6-(2-Fluoro-3-trifluoromethyl-isopropyl-N-phenylamino)-4-(tetrahydro-pyran-4-ylmethyl) nicotinamide], for which the Emax is above 50%. For `CC(C)c1cc(Nc2cccc(Cl)c2)ncc1C(=O)NC1CCCCC1` [Example 53, 6-(3-Chloro-Phenylamino)-N-cyclohexyl-4-isopropyl-nicotinamide], the EC50 is below 300 nM and the Emax was above 50%. On to `CC(C)c1nc(Nc2ccc(Cl)cc2Cl)ccc1C(=O)NCC1CCC1` [Example 212, 6-(2,4-Dichloro-phenylamino)-N-cyclobutylmethyl-2-isopropyl-nicotinamide], for which the EC50 was below 300 nM and the Emax was above 50%. Turning to `CC(C)c1cc(Nc2ccc(C#N)c(Cl)c2)ncc1C(=O)NCC1CCOCC1` [Example 79, 6-(3-Chloro-4-cyano-phenylamino)-4-isopropyl-N-(tetrahydro-pyran-4-ylmethyl) nicotinamide], the Emax was above 50%. For the molecule `CC(C)CNC(=O)c1cnc(Nc2cccc(Cl)c2)cc1C(F)(F)F` [Example 113, N-Isobutyl-6-(3-chloro-phenylamino)-4-trifluoro-methyl-nicotinainide], the EC50 is below 300 nM and the Emax was above 50%. As for `O=C(NCC1CC1)c1cnc(Nc2cc(Cl)cc(Cl)c2)cc1C(F)(F)F` [Example 152, N-Cyclopropylmethyl-6-(3,5-dichloro-phenylamino)-4-tri-fluoromethyl-nicotinamide], the concentration for a half-maximal effect (EC50) was below 300 nM and the maximal response (Emax) is above 50%. The corresponding values for `O=C(NC1CCC1)c1cnc(Nc2ccc(Cl)cc2Cl)cc1C(F)(F)F` [Example 140, N-Cyclobutyl-6-(2,4-dichloro-phenylamino)-4-trifluoro-methyl-nicotinamide] are below 300 nM and above 50%. `Cc1ccc(Nc2cc(C(C)C)c(C(=O)NCC3CCOCC3)cn2)cc1Cl` [Example 85]: the EC50 is below 300 nM and the Emax was above 50%. The corresponding values for `CC(C)c1cc(Nc2ccc(OC(F)(F)F)cc2Br)ncc1C(=O)NCC1CCOCC1` [Example 240, 6-(2-Bromo-4-trifluoromethoxy-phenylamino)-4-isopropyl-N-(tetrahydro-pyran-4-ylmethyl)-nicotinamide] are below 300 nM and above 50%.

Take `CC(C)CNC(=O)c1cnc(Nc2ccc(Cl)cc2Cl)cc1C(F)(F)F` [Example 143, N-Isobutyl-6-(2,4-dichloro-phenylamino)-4-trifluoro-methyl-nicotinamide]: the EC50 was below 300 nM and the Emax was above 50%. In the same order, the values of `O=C(NCC1CCCC1)c1cnc(Nc2cccc(Br)c2)cc1C(F)(F)F` [Example 122, N-Cyclopentylmethyl-6-(3-bromo-phenylamino)-4-tri-fluoromethyl-nicotinamide] are below 300 nM and above 50%. In the same order, the values of `CC(C)c1cc(Nc2ccc(Br)cc2Cl)ncc1C(=O)NCC1CCC1` [Example 255, 6-(4-Bromo-2-chloro-phenylamino)-N-cyclobutylmethyl-4-isopropyl-nicotinamide] are below 300 nM and above 50%.

As to `O=C(NCC1CCCC1)c1cnc(Nc2ccc(Cl)c(Cl)c2)cc1C(F)(F)F` [Example 156, N-Cyclopentylmethyl-6-(3,4-dichloro-phenylamino)-4-tri-fluoromethyl-nicotinamide], the EC50 is below 300 nM and the Emax was above 50%. The corresponding values for `O=C(NCC1CC1)c1cnc(Nc2ccc(Cl)c(Cl)c2)cc1C(F)(F)F` [Example 158, N-Cyclopropylmethyl-6-(3,4-dichloro-phenylamino)-4-tri-fluoromethyl-nicotinamide] are below 300 nM and above 50%. The corresponding values for `CC(C)c1cc(Nc2cc(F)cc(C(F)(F)F)c2)ncc1C(=O)NCC1CCOCC1` [Example 80, 6-(3-Fluoro-5-trifluoromethyl-phenylamino)-4-isopropyl-N-(tetrahydro-pyran-4-ylmethyl) nicotinamide] are below 300 nM and above 50%. For the molecule `CC(C)c1cc(Nc2cc(Cl)ccc2F)ncc1C(=O)NCC1CCOCC1` [Example 76, 6-(5-Chloro-2-fluoro-phenylamino)-4-isopropyl-N-(tetrahydro-pyran-4-ylmethyl)-nicotinamide], the EC50 was below 300 nM and the Emax is above 50%. For `O=C(NCC1CCCC1)c1cnc(Nc2ccc(Cl)cc2Cl)cc1C(F)(F)F` [Example 141, N-Cyclopentylmethyl-6-(2,4-dichloro-phenylamino)-4-tri-fluoromethyl-nicotinamide], the Emax was above 50%. Still for that read-out and setting: for `Cc1cccc(Nc2cc(C(C)C)c(C(=O)NCC3CCC3)cn2)c1` [Example 37, N-Cyclobutylmethyl-4-isopropyl-6-m-tolylamino-nicotinamide] the value was above 50%.

`CC(C)c1cc(Nc2cc(Cl)ccc2Cl)ncc1C(=O)NCC1CCOCC1` [Example 87, 6-(2,5-Dichloro-phenylamino)-4-isopropyl-N-(tetrahydro-pyran-4-ylmethyl)-nicotinamide]: the EC50 was below 300 nM and the Emax was above 50%. Consider `CC(C)c1cc(Nc2ccc(C#N)c(Cl)c2)ncc1C(=O)NCC1CCCC1` [Example 247, 6-(3-Chloro-4-cyano-phenytamino)-N-cyclopentylmethyl-4-isopropyl-nicotinamide], for which the EC50 is below 300 nM and the maximal response (Emax) is above 50%. In the same order, the values of `CC(C)c1cc(Nc2cccc(C(F)(F)F)c2)ncc1C(=O)NCC1CCCC1` [Example 23, N-Cyclopentylmethyl-4-isopropyl-6-(3-trifluoromethyl-phenylamino)-nicotinamide] are below 300 nM and above 50%. On to `CC(C)CNC(=O)c1cnc(Nc2cccc(C(F)(F)F)c2F)cc1C(C)C` [Example 271, 6-(2-Fluoro-3-trifluoromethyl-phenylamino)-N-isobutyl-4-isopropyl-nicotinamide], for which the EC50 was below 300 nM and the Emax is above 50%. As for `CC(C)c1cc(Nc2ccc(Br)cc2Cl)ncc1C(=O)NCC1CCOCC1` [Example 82], the EC50 is below 300 nM and the Emax was above 50%. In the same order, the values of `CC(C)c1cc(Nc2ccc(C(F)(F)F)c(F)c2)ncc1C(=O)NCC1CCCC1` [Example 92, N-Cyclopentylmethyl-6-(3-fluoro-4-trifluoromethyl-phenylamino)-4-isopropyl-nicotinamide] are below 300 nM and above 50%. Turning to `CC(C)c1cc(Nc2cc(F)ccc2Br)ncc1C(=O)NCC1CCOCC1` [Example 235, 6-(2-Bromo-5-fluoro-phenylamino)-4-isopropyl-N-(tetrahydro-pyran-4-ylmethyl)-nicotinamide], the EC50 is below 300 nM and the Emax is above 50%. In the same order, the values of `CC(C)c1cc(Nc2ccc(Cl)c(Cl)c2)ncc1C(=O)NCC1CCCCC1` [Example 3, N-Cyclohexylmethyl-6-(3,4-dichloro-phenylamino)-4-isopropyl-nicotinamide] are below 300 nM and above 50%. In the same order, the values of `CC(C)c1cc(Nc2cccc(Cl)c2Cl)ncc1C(=O)NCC1CCOCC1` [Example 16, 6-(2,3-Dichloro-phenylamino)-4-isopropyl-N-(tetrahydro-pyran-4-ylmethyl)-nicotinamide] are below 300 nM and above 50%.

Regarding `CC(C)c1cc(Nc2ccc(Br)cc2Cl)ncc1C(=O)NCC1CCCC1` [Example 248, 6-(4-bromo-2-chlorophenylamino)-N-cyclopentylmethyl-4-isopropyl-nicotinamide], the EC50 is below 300 nM and the Emax is above 50%. Take `CC(C)c1cc(Nc2cccc(Br)c2)ncc1C(=O)NCC1CCOCC1` [Example 8, 6-(3-Bromo-phenyl-amino)-4-isopropyl-N-(tetrahydro-pyran-4-ylmethyl)-nicotinamide]: the Emax is above 50%. Take `CC(C)c1cc(Nc2ccc(Cl)cc2Cl)ncc1C(=O)NCC1CCCCC1` [Example 5, N-Cyclohexylmethyl-6-(2,4-dichloro-phenylamino)-4-isopropyl-nicotinamide]: the EC50 is below 300 nM and the Emax was above 50%. In the same order, the values of `CC(C)c1cc(Nc2cc(C(F)(F)F)ccc2Cl)ncc1C(=O)NCC1CCOCC1` [Example 237, 6-(2-Chloro-5-trifluoromethyl-phenylamino)-4-isopropyl-N-(tetrahydro-pyran-4-ylmethyl)-nicotinamide] are below 300 nM and above 50%.

As for `COc1ccc(Cl)cc1Nc1cc(C(F)(F)F)c(C(=O)NCC2CCC2)cn1` [Example 169, N-Cyclobutylmethyl-6-(2-methoxy-5-chloro-phenyl-amino)-4-trifluoromethyl-nicotinamide], the Emax is above 50%.

For the molecule `CC(C)c1cc(Nc2ccc(F)c(C(F)(F)F)c2)ncc1C(=O)NCC1CCOCC1` [Example 295, 6-(4-Fluoro-3-trifluoromethyl-phenylamino)-4-isopropyl-N-(tetrahydropyran-4-ylmethyl)-nicotinamide], the EC50 was below 300 nM and the Emax is above 50%. With `CC(C)c1cc(Nc2cccc(Br)c2)ncc1C(=O)NCC1CCCC1` [Example 26, 6-(3-Bromophenylamino)-N-cyclopentylmethyl-4-isopropyl-nicotinamide], the EC50 was below 300 nM and the Emax is above 50%. In the same order, the values of `CC(C)c1cc(Nc2ccc(F)c(Cl)c2)ncc1C(=O)NCC1CCOCC1` [Example 77, 6-(3-Chloro-4-fluoro-phenylamino)-4-isopropyl-N-(tetrahydro-pyran-4-ylmethyl)-nicotinamide] are below 300 nM and above 50%.
